Data from PMC7531004, “Discovery of gramicidin A analogues with altered activities by multidimensional screening of a one-bead-one-compound library” (Nature Communications, 2020).
Where a SMILES comes first, the peptide text is derived from it. [ ]: non-standard residue; d: D form. The star is where a group is joined. NHCH2CH2OH = OCCN*; For = O=C*

Assays:
[1] = H+/Na+ transport assay of bead-derived peptides (one-point); assay type: biochemical; design: key: relative activity; mean of two control wells = 1.00; settings: bead-derived peptide solution, EYPC/EYPG LUVs;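 further: relative to parent gramicidin A activity set to 1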
Procedure, shortened: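 Miniaturized 96-well format. LUVs with entrapped pyranine (1.0 mM) were exposed to peptide for 30 min at RT. Intensities were expressed relative to full lysis by Triton X-100 and no treatment, with control-well mean = 1.00.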

[2] = tested on: P388 mouse leukemia cells; settings: 92 h
Procedure, shortened: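 Peptide stocks diluted 250× in growth medium; P388 cells 1 × 10^4 cells/mL final; 37 °C, 5% CO2, 92 h. WST-1 + 1-methoxy PMS, 4 h, A415. Output: % viability.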

[3] = tested on: Streptococcus pyogenes SSI-9; experiment: Antibacterial activity assay of bead-derived peptides (three concentrations); assay type: cell-based; design: key: +++: inhibition by the 640-fold diluted peptide solution; ++: inhibition by the 160-fold diluted solution; +: inhibition by the 40-fold diluted solution; -: no inhibition; settings: S. pyogenes, bead-derived peptide solution, three concentrations
Procedure, shortened: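 Growth inhibition scored visually as precipitated bacteria after 37 °C, 18 h incubation. Streptococcus pyogenes SSI-9 inoculum of 2 × 10^5 CFU in Ca2+/Mg2+-adjusted Mueller Hinton broth plus 5% laked horse blood; peptides tested at three levels: stock, 4-fold and 16-fold DMSO dilutions.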

CNC(=O)C[C@@H](NC(=O)[C@@H](NC(=O)[C@@H](CC(C)C)NC(=O)[C@H](C)NC(=O)[C@@H](CC(C)C)NC(=O)[C@H](C)NC(=O)CNC(=O)[C@@H](NC=O)C(C)C)C(C)C)C(=O)N[C@@H](Cc1c[nH]c2ccccc12)C(=O)N[C@H](CC(C)C)C(=O)N[C@@H](Cc1c[nH]c2ccccc12)C(=O)N[C@H](CC(C)C)C(=O)N[C@@H](Cc1c[nH]c2ccccc12)C(=O)N[C@@H](C(=O)N[C@@H](Cc1c[nH]c2ccccc12)C(=O)NCCO)[C@H](C)O [compound 2967] (For-VGA[dL]A[dL]V[dD](NHMe)W[dL]W[dL]W[dT]W-NHCH2CH2OH)
H+/Na+ transport activity normalized against the value of 1 (1.00) [1]: 1.04
cell viability/% [2]: 100.0%
antibacterial activity [3]: -

CC(C)C[C@@H](NC(=O)[C@H](C)NC(=O)CNC(=O)[C@@H](NC=O)C(C)C)C(=O)N[C@@H](C)C(=O)N[C@H](CC(C)C)C(=O)N[C@H](C(=O)N[C@@H](C(=O)N[C@@H](Cc1c[nH]c2ccccc12)C(=O)N[C@@H](C(=O)N[C@@H](Cc1c[nH]c2ccccc12)C(=O)N[C@@H](C(=O)N[C@@H](Cc1c[nH]c2ccccc12)C(=O)N[C@@H](C(=O)N[C@@H](Cc1c[nH]c2ccccc12)C(=O)NCCO)C(C)C)C(C)C)C(C)C)C(C)C)C(C)C [compound 7845] (For-VGA[dL]A[dL]V[dV]W[dV]W[dV]W[dV]W-NHCH2CH2OH)
H+/Na+ transport activity normalized against the value of 1 (1.00) [1]: 1.04
cell viability/% [2]: 100.0%
antibacterial activity [3]: +

CC(C)C[C@@H](NC(=O)[C@H](Cc1c[nH]c2ccccc12)NC(=O)[C@@H](CC(C)C)NC(=O)[C@@H](NC(=O)[C@H](NC(=O)[C@H](C)NC(=O)[C@H](NC(=O)[C@H](C)NC(=O)CNC(=O)[C@@H](NC=O)C(C)C)[C@H](C)O)C(C)C)C(C)C)C(=O)N[C@@H](Cc1c[nH]c2ccccc12)C(=O)N[C@H](CC(C)C)C(=O)N[C@@H](Cc1c[nH]c2ccccc12)C(=O)N[C@@H](C(=O)N[C@@H](Cc1c[nH]c2ccccc12)C(=O)NCCO)C(C)C [compound 94] (For-VGA[dT]A[dV]V[dL]W[dL]W[dL]W[dV]W-NHCH2CH2OH)
H+/Na+ transport activity normalized against the value of 1 (1.00) [1]: 1.16
cell viability/% [2]: 100.0%
antibacterial activity [3]: -

CC(C)C[C@@H](NC(=O)[C@H](C)NC(=O)[C@H](NC(=O)[C@H](C)NC(=O)CNC(=O)[C@@H](NC=O)C(C)C)C(C)C)C(=O)N[C@H](C(=O)N[C@@H](C(=O)N[C@@H](Cc1c[nH]c2ccccc12)C(=O)N[C@@H](C(=O)N[C@@H](Cc1c[nH]c2ccccc12)C(=O)N[C@H](CC(C)C)C(=O)N[C@@H](Cc1c[nH]c2ccccc12)C(=O)N[C@@H](C(=O)N[C@@H](Cc1c[nH]c2ccccc12)C(=O)NCCO)C(C)C)C(C)C)[C@H](C)O)C(C)C [compound 7131] (For-VGA[dV]A[dL]V[dT]W[dV]W[dL]W[dV]W-NHCH2CH2OH)
H+/Na+ transport activity normalized against the value of 1 (1.00) [1]: 1.08
cell viability/% [2]: 100.0%
antibacterial activity [3]: -

CNC(=O)C[C@@H](NC(=O)[C@@H](NC(=O)[C@@H](CC(C)C)NC(=O)[C@H](C)NC(=O)[C@H](NC(=O)[C@H](C)NC(=O)CNC(=O)[C@@H](NC=O)C(C)C)C(C)C)C(C)C)C(=O)N[C@@H](Cc1c[nH]c2ccccc12)C(=O)N[C@H](CC(C)C)C(=O)N[C@@H](Cc1c[nH]c2ccccc12)C(=O)N[C@@H](C(=O)N[C@@H](Cc1c[nH]c2ccccc12)C(=O)N[C@@H](C(=O)N[C@@H](Cc1c[nH]c2ccccc12)C(=O)NCCO)C(C)C)C(C)C [compound 6822] (For-VGA[dV]A[dL]V[dD](NHMe)W[dL]W[dV]W[dV]W-NHCH2CH2OH)
H+/Na+ transport activity normalized against the value of 1 (1.00) [1]: 1.23
cell viability/% [2]: 100.0%
antibacterial activity [3]: -

CNC(=O)C[C@@H](NC(=O)[C@@H](NC(=O)[C@H](NC(=O)[C@H](C)NC(=O)[C@@H](CC(C)C)NC(=O)[C@H](C)NC(=O)CNC(=O)[C@@H](NC=O)C(C)C)C(C)C)C(C)C)C(=O)N[C@@H](Cc1c[nH]c2ccccc12)C(=O)N[C@@H](C(=O)N[C@@H](Cc1c[nH]c2ccccc12)C(=O)N[C@@H](C(=O)N[C@@H](Cc1c[nH]c2ccccc12)C(=O)N[C@H](CC(C)C)C(=O)N[C@@H](Cc1c[nH]c2ccccc12)C(=O)NCCO)C(C)C)C(C)C [compound 12636] (For-VGA[dL]A[dV]V[dD](NHMe)W[dV]W[dV]W[dL]W-NHCH2CH2OH)
H+/Na+ transport activity normalized against the value of 1 (1.00) [1]: 1.21
cell viability/% [2]: 100.0%
antibacterial activity [3]: -

CC(C)C[C@@H](NC(=O)[C@H](C)NC(=O)[C@H](NC(=O)[C@H](C)NC(=O)CNC(=O)[C@@H](NC=O)C(C)C)[C@H](C)O)C(=O)N[C@H](C(=O)N[C@H](CC(C)C)C(=O)N[C@@H](Cc1c[nH]c2ccccc12)C(=O)N[C@@H](C(=O)N[C@@H](Cc1c[nH]c2ccccc12)C(=O)N[C@@H](C(=O)N[C@@H](Cc1c[nH]c2ccccc12)C(=O)N[C@H](CC(C)C)C(=O)N[C@@H](Cc1c[nH]c2ccccc12)C(=O)NCCO)C(C)C)C(C)C)C(C)C [compound 2242] (For-VGA[dT]A[dL]V[dL]W[dV]W[dV]W[dL]W-NHCH2CH2OH)
H+/Na+ transport activity normalized against the value of 1 (1.00) [1]: 1.15
cell viability/% [2]: 100.0%
antibacterial activity [3]: -

CC(C)C[C@@H](NC(=O)[C@H](C)NC(=O)CNC(=O)[C@@H](NC=O)C(C)C)C(=O)N[C@@H](C)C(=O)N[C@H](CC(C)C)C(=O)N[C@H](C(=O)N[C@@H](C(=O)N[C@@H](Cc1c[nH]c2ccccc12)C(=O)N[C@H](CC(C)C)C(=O)N[C@@H](Cc1c[nH]c2ccccc12)C(=O)N[C@@H](C(=O)N[C@@H](Cc1c[nH]c2ccccc12)C(=O)N[C@@H](C(=O)N[C@@H](Cc1c[nH]c2ccccc12)C(=O)NCCO)C(C)C)[C@H](C)O)C(C)C)C(C)C [compound 13273] (For-VGA[dL]A[dL]V[dV]W[dL]W[dT]W[dV]W-NHCH2CH2OH)
H+/Na+ transport activity normalized against the value of 1 (1.00) [1]: 1.05
cell viability/% [2]: 100.0%
antibacterial activity [3]: -

CC(C)C[C@@H](NC(=O)[C@H](C)NC(=O)CNC(=O)[C@@H](NC=O)C(C)C)C(=O)N[C@@H](C)C(=O)N[C@H](CC(C)C)C(=O)N[C@H](C(=O)N[C@@H](C(=O)N[C@@H](Cc1c[nH]c2ccccc12)C(=O)N[C@@H](C(=O)N[C@@H](Cc1c[nH]c2ccccc12)C(=O)N[C@H](CC(C)C)C(=O)N[C@@H](Cc1c[nH]c2ccccc12)C(=O)N[C@H](CC(C)C)C(=O)N[C@@H](Cc1c[nH]c2ccccc12)C(=O)NCCO)[C@H](C)O)[C@H](C)O)C(C)C [compound 4421] (For-VGA[dL]A[dL]V[dT]W[dT]W[dL]W[dL]W-NHCH2CH2OH)
H+/Na+ transport activity normalized against the value of 1 (1.00) [1]: 1.12
cell viability/% [2]: 100.0%
antibacterial activity [3]: -

CNC(=O)C[C@@H](NC(=O)[C@@H](NC(=O)[C@@H](CC(C)C)NC(=O)[C@H](C)NC(=O)[C@H](NC(=O)[C@H](C)NC(=O)CNC(=O)[C@@H](NC=O)C(C)C)C(C)C)C(C)C)C(=O)N[C@@H](Cc1c[nH]c2ccccc12)C(=O)N[C@H](CC(C)C)C(=O)N[C@@H](Cc1c[nH]c2ccccc12)C(=O)N[C@H](CC(C)C)C(=O)N[C@@H](Cc1c[nH]c2ccccc12)C(=O)N[C@@H](C(=O)N[C@@H](Cc1c[nH]c2ccccc12)C(=O)NCCO)C(C)C [compound 3800] (For-VGA[dV]A[dL]V[dD](NHMe)W[dL]W[dL]W[dV]W-NHCH2CH2OH)
H+/Na+ transport activity normalized against the value of 1 (1.00) [1]: 1.23
cell viability/% [2]: 100.0%
antibacterial activity [3]: -

CNC(=O)C[C@@H](NC(=O)[C@@H](NC(=O)[C@@H](CC(C)C)NC(=O)[C@H](C)NC(=O)[C@H](NC(=O)[C@H](C)NC(=O)CNC(=O)[C@@H](NC=O)C(C)C)C(C)C)C(C)C)C(=O)N[C@@H](Cc1c[nH]c2ccccc12)C(=O)N[C@@H](C(=O)N[C@@H](Cc1c[nH]c2ccccc12)C(=O)N[C@H](CC(C)C)C(=O)N[C@@H](Cc1c[nH]c2ccccc12)C(=O)N[C@H](CC(C)C)C(=O)N[C@@H](Cc1c[nH]c2ccccc12)C(=O)NCCO)C(C)C [compound 12975] (For-VGA[dV]A[dL]V[dD](NHMe)W[dV]W[dL]W[dL]W-NHCH2CH2OH)
H+/Na+ transport activity normalized against the value of 1 (1.00) [1]: 1.43
cell viability/% [2]: 86.0%
antibacterial activity [3]: -

CC(C)C[C@@H](NC(=O)[C@H](C)NC(=O)CNC(=O)[C@@H](NC=O)C(C)C)C(=O)N[C@@H](C)C(=O)N[C@@H](C(=O)N[C@H](C(=O)N[C@@H](C(=O)N[C@@H](Cc1c[nH]c2ccccc12)C(=O)N[C@@H](C(=O)N[C@@H](Cc1c[nH]c2ccccc12)C(=O)N[C@H](CC(C)C)C(=O)N[C@@H](Cc1c[nH]c2ccccc12)C(=O)N[C@@H](C(=O)N[C@@H](Cc1c[nH]c2ccccc12)C(=O)NCCO)C(C)C)C(C)C)C(C)C)C(C)C)C(C)C [compound 4884] (For-VGA[dL]A[dV]V[dV]W[dV]W[dL]W[dV]W-NHCH2CH2OH)
H+/Na+ transport activity normalized against the value of 1 (1.00) [1]: 1.27
cell viability/% [2]: 49.1%
antibacterial activity [3]: ++

CC(C)C[C@@H](NC(=O)[C@H](C)NC(=O)[C@H](NC(=O)[C@H](C)NC(=O)CNC(=O)[C@@H](NC=O)C(C)C)C(C)C)C(=O)N[C@H](C(=O)N[C@H](CC(C)C)C(=O)N[C@@H](Cc1c[nH]c2ccccc12)C(=O)N[C@H](CC(C)C)C(=O)N[C@@H](Cc1c[nH]c2ccccc12)C(=O)N[C@@H](C(=O)N[C@@H](Cc1c[nH]c2ccccc12)C(=O)N[C@H](CC(C)C)C(=O)N[C@@H](Cc1c[nH]c2ccccc12)C(=O)NCCO)[C@H](C)O)C(C)C [compound 4209] (For-VGA[dV]A[dL]V[dL]W[dL]W[dT]W[dL]W-NHCH2CH2OH)
H+/Na+ transport activity normalized against the value of 1 (1.00) [1]: 1.33
cell viability/% [2]: 96.2%
antibacterial activity [3]: -
